This passage reports IC50 results from patent US8710038B2, “Pyrazole kinase modulators and methods of use” (Exelixis, Inc., priority 2004, dated 2014).

One assay addresses T1, flt-3 (Homo sapiens, UniProt P36888).
T1 construct: baculovirus expressed human Flt-3 kinase domain R571-S993
T1 sequence (P36888 571-993): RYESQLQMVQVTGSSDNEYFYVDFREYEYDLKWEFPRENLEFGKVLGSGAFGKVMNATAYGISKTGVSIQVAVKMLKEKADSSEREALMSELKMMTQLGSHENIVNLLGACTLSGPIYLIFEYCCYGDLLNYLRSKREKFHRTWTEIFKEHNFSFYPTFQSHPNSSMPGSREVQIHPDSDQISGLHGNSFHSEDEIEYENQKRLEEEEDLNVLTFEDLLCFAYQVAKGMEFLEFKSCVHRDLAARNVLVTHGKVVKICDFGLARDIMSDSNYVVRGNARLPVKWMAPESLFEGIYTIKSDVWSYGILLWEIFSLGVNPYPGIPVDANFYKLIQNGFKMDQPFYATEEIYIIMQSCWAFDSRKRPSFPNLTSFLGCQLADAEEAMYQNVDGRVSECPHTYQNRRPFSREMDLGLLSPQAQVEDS
Briefly: flt-3 Luciferase-Coupled Chemiluminescent Kinase assay (LCCA). Type of assay: biochemical. The method, then:
In the LCCA assays, kinase activity is measured as the percent ATP consumed following the kinase reaction using luciferase-luciferin-coupled chemiluminescence. Greiner 384-well white, clear bottom, medium-binding plates are used for LCCA. Briefly, the kinase reaction is initiated by mixing compounds, ATP and kinase in a 20 uL volume. The mixture is incubated at ambient temperature for 2-4 hrs. At the end of the kinase reaction, a 20 uL luciferase-luciferin mix is added and the chemiluminescent signal is read using a Wallac Victor^2 reader. The luciferase-luciferin mix consists of 50 mM HEPES, pH 7.8, 8.5 ug/mL oxalic acid (pH 7.8), 5 (or 50) mM DTT, 0.4% Triton X-100, 0.25 mg/mL coenzyme A, 63 uM AMP, 28 ug/mL luciferin and 40,000 units of light/mL luciferase. For the LCCA assays, total ATP consumption has been standardized to 25-45% and the IC50 values correlates well with those determined by radiometric assays.
Flt-3 biochemical activity was assessed using a Luciferase-Coupled Chemiluminescent Kinase assay (LCCA) format. Kinase activity was measured as the percent ATP remaining following the kinase reaction. Remaining ATP was detected by luciferase-luciferin-coupled chemiluminescence. Specifically, the reaction was initiated by mixing test compounds, 5 μM ATP, 3 μM poly-EY and 5 nM Flt-3 (baculovirus expressed human Flt-3 kinase domain R571-S993) in a 20 uL assay buffer (20 mM Tris-HCL pH7.5, 10 mM MgCl2, 0.01% Triton X-100, 1 mM DTT, 2 mM MnCl2). The mixture is incubated at ambient temperature for 3 hours after which 20 uL luciferase-luciferin mix is added and the chemiluminescent signal read using a Wallac Victor^2 reader. The luciferase-luciferin mix consists of 50 mM HEPES, pH 7.8, 8.5 ug/mL oxalic acid (pH 7.8), 5 (or 50) mM DTT, 0.4% Triton X-100, 0.25 mg/mL coenzyme A, 63 uM AMP, 28 ug/mL luciferin and 40,000 units of light/mL luciferase.

The target in a further assay is c-Kit (Homo sapiens, UniProt P10721). Description: c-Kit biochemical assay (AlphaScreen). The text has this: AlphaScreen technology is a proximity assay which utilizes the increase in fluorescent signal occurring when donor and acceptor beads are close in proximity. Biotinylated poly(Glu,Tyr) 4:1 is used as the kinase substrate, in conjunction with streptavidin-coated donor beads and anti-phosphortyrosine antibody PY100-coated acceptor beads. Upon phosphorylation, the peptide substrate can bind to both donor and acceptor beads giving rise to an increase in fluorescence. Compounds, ATP, biotinylated poly(Glu, Tyr) and kinases are mixed in a volume of 20 uL for 1 hr at ambient temperature using Greiner 384-well white clear bottom medium binding plates. Following incubation a 10 uL solution containing […] AlphaScreen beads, 75 mM Hepes, pH 7.4, 300 mM NaCl, 120 mM EDTA, 0.3% BSA and 0.03% Tween-20 is added to each well. After 2-16 hr incubation of the beads, plates are read in a Perkin Elmer AlphaQuest reader. The IC50 values correlates well with those of radiometric assays.
Chain of c-Kit (P10721 26-976): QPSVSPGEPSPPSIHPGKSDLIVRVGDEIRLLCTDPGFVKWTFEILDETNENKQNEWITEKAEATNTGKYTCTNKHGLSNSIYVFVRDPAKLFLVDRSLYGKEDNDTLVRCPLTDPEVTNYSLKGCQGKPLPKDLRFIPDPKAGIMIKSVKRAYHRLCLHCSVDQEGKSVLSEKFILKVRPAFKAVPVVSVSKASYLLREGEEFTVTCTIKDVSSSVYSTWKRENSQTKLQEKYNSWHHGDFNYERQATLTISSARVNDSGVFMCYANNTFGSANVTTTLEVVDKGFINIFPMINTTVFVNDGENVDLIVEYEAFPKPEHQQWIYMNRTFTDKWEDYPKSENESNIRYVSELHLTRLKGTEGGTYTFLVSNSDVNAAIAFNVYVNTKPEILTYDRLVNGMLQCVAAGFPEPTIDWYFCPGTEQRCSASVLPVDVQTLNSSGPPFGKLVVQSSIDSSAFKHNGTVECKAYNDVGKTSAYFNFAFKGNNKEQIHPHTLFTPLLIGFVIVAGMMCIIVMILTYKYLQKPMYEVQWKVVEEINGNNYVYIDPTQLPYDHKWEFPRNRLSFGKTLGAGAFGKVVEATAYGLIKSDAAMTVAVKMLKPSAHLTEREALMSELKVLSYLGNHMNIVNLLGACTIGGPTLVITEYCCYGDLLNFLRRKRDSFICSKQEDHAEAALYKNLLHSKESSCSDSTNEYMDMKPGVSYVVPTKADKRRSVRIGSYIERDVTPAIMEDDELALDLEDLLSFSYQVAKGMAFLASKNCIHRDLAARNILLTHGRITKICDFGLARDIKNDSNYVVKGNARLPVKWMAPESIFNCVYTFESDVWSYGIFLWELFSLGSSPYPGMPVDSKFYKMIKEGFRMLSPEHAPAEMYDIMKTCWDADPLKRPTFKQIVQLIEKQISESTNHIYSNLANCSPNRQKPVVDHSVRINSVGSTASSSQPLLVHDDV
c-Kit biochemical activity was assessed using AlphaScreen™ (Perkin Elmer) technology, described above. Test compounds, ATP, biotinylated poly(Glu, Tyr) and c-Kit kinase were combined in a volume of 20 μL in a 384-well white, medium binding microtiter plate (Greiner). Reaction mixtures were incubated for 1 hr at ambient temperature. Reactions were quenched by addition of 10 uL of […] AlphaScreen bead suspension containing 75 mM Hepes, pH 7.4, 300 mM NaCl, 120 mM EDTA, 0.3% BSA and 0.03% Tween-20. After 16 hr incubation at ambient temperature plates were read using an AlphaQuest reader (Perkin Elmer).

On to `CN1CCN(c2ccc3nc(-c4cc(-c5ccc(NC(=O)Nc6ccc(C(F)(F)F)cc6)cc5)[nH]n4)[nH]c3c2)CC1` [Entry 13, N-(4-{3-[6-(4-methylpiperazin-1-yl)-1H-benzimidazol-2-yl]-1H-pyrazol-5-yl}phenyl)-N′-[4-(trifluoromethyl)phenyl]urea], for which the half-inhibitory concentration (IC50) at flt-3 and on c-Kit was below 50 nM in each case.

Turning to `Cc1ccc(NC(=O)Nc2ccc(-c3cc(-c4ccc(N5CCN(C)CC5)cc4)[nH]n3)cc2)cc1C` [Entry 17, N-(3,4-dimethylphenyl)-N′-(4-{5-[4-(4-methylpiperazin-1-yl)phenyl]-1H-pyrazol-3-yl}phenyl)urea], the IC50 against flt-3 and at c-Kit was below 50 nM throughout.

With `CN1CCN(c2ccc3nc(-c4cc(-c5ccc(NC(=O)Nc6cccc(C#N)c6)cc5)[nH]n4)[nH]c3c2)CC1` [Entry 24, N-(3-cyanophenyl)-N′-(4-{3-[6-(4-methylpiperazin-1-yl)-1H-benzimidazol-2-yl]-1H-pyrazol-5-yl}phenyl)urea], the IC50 at flt-3 and against c-Kit was below 50 nM in each case.

Turning to `COc1ccc(NC(=O)Nc2ccc(-c3cc(-c4nc5cc(N6CCN(C)CC6)ccc5[nH]4)n[nH]3)cc2)cc1OC` [Entry 26, N-[3,4-bis(methyloxy)phenyl]-N′-(4-{3-[5-(4-methylpiperazin-1-yl)-1H-benzimidazol-2-yl]-1H-pyrazol-5-yl}phenyl)urea], the concentration for half-maximal inhibition (IC50) against flt-3 and against c-Kit was below 50 nM throughout.

For `COc1ccc(Cl)cc1NC(=O)Nc1ccc(-c2cc(-c3ccc(N4CCN(C)CC4)cc3)[nH]n2)cc1` [Entry 27, N-[5-chloro-2-(methyloxy)phenyl]-N′-(4-{5-[4-(4-methylpiperazin-1-yl)phenyl]-1H-pyrazol-3-yl}phenyl)urea], the IC50 against flt-3 and against c-Kit was below 50 nM throughout.

Take `CN1CCN(c2ccc(-c3cc(-c4ccc(NC(=O)Nc5ccc(Oc6ccccc6)cc5)cc4)n[nH]3)cc2)CC1` [Entry 28, N-(4-{5-[4-(4-methylpiperazin-1-yl)phenyl]-1H-pyrazol-3-yl}phenyl)-N′-[4-(phenyloxy)phenyl]urea]: the IC50 against flt-3 and on c-Kit was below 50 nM in each case.

On to `Cc1ccc(F)cc1NC(=O)Nc1ccc(-c2cc(-c3nc4ccc(N5CCN(C)CC5)cc4[nH]3)n[nH]2)cc1` [Entry 38, N-(5-fluoro-2-methylphenyl)-N′-(4-{3-[6-(4-methylpiperazin-1-yl)-1H-benzimidazol-2-yl]-1H-pyrazol-5-yl}phenyl)urea], for which the concentration for half-maximal inhibition (IC50) at flt-3 and against c-Kit was below 50 nM in each case.

Take `CN1CCN(c2cccc(-c3cc(-c4ccc(NC(=O)Nc5ccc(Cl)c(C(F)(F)F)c5)cc4)[nH]n3)c2)CC1` [Entry 40, N-[4-chloro-3-(trifluoromethyl)phenyl]-N′-(4-{3-[3-(4-methylpiperazin-1-yl)phenyl]-1H-pyrazol-5-yl}phenyl)urea]: the half-maximal inhibitory concentration (IC50) on flt-3 was below 50 nM; on c-Kit it was 50 to 500 nM.

With `COc1ccc(NC(=O)Nc2ccc(-c3cc(-c4ccc(N5CCN(C)CC5)cc4)[nH]n3)cc2)c(OC)c1` [Entry 43, N-[2,4-bis(methyloxy)phenyl]-N′-(4-{5-[4-(4-methylpiperazin-1-yl)phenyl]-1H-pyrazol-3-yl}phenyl)urea], the half-inhibitory concentration (IC50) on flt-3 is below 50 nM; against c-Kit, 50 to 500 nM.

As to `CC(C)(C)OC(=O)Nc1ccc(-c2cc(-c3nc4ccccc4[nH]3)n[nH]2)cc1` [Entry 52, 1,1-dimethylethyl{4-[3-(1H-benzimidazol-2-yl)-1H-pyrazol-5-yl]phenyl}carbamate], the IC50 against flt-3 lay in the range of 500 to 5000 nM; on c-Kit it was 50 to 500 nM.

Turning to `Oc1ccc(/C=C/c2cc(-c3ccccn3)[nH]n2)cc1` [Entry 62, 4-[(E)-2-(5-pyridin-2-yl-1H-pyrazol-3-yl)ethenyl]phenol], the half-maximal inhibitory concentration (IC50) fell in the range of 50 to 500 nM against flt-3 and 500 to 5000 nM against c-Kit.

Consider `Oc1ccc(/C=C/c2cc(-c3cc4cc(Cl)ccc4o3)n[nH]2)cc1` [Entry 63, 4-{(E)-2-[3-(5-chloro-1-benzofuran-2-yl)-1H-pyrazol-5-yl]ethenyl}phenol], for which the half-maximal inhibitory concentration (IC50) on flt-3 is 50 to 500 nM; against c-Kit it was 500 to 5000 nM.
